Source: the OPERA property sets (Mansouri et al. 2018)

Details: for log10 BCF / log10 biotransformation half-life (days): fish

Structure (SMILES) | boiling point | melting point | further results
FCCBr | 71.5 °C |  | 
COCC(C)OC (stereo unspecified) | 96 °C |  | 
Cc1ccc(C(C)C)c(C)c1 | 197 °C | -82 °C | 
ClC1=C(Cl)[C@]2(Cl)[C@@H]3[C@@H]4C[C@@H]([C@H]5O[C@@H]45)[C@@H]3[C@@]1(Cl)C2(Cl)Cl (single isomer, unassigned) | 330 °C | 202 °C | log10 Henry constant (atm·m³/mol): -5.09; log10 Koa: 8.52; log10 Koc (L/kg): 4.08; log10 vapour pressure (mmHg): -5.38; ready biodegradability: not readily biodegradable; log10 BCF: 3.91; log10 biotransformation half-life (days): 1.65
C1CCCOCC1 | 119 °C |  | 
O=C=NC1CCCCC1 | 172 °C | -80 °C | log10 vapour pressure (mmHg): 0.0086
Clc1ccc(-c2c(Cl)cc(Cl)c(Cl)c2Cl)cc1 |  |  | log10 biotransformation half-life (days): 1.84
CCCCCCC(=O)OCCCC | 226 °C | -67.5 °C | 
CCO[Si](OCC)(OCC)OCC | 169 °C | -82.5 °C | log10 vapour pressure (mmHg): 0.275
O=C(O)c1nc(Cl)ccc1Cl |  | 151 °C | log10 Koc (L/kg): 1.56; log10 vapour pressure (mmHg): -4.92
CCCN(CCC)c1c([N+](=O)[O-])cc(C(F)(F)F)cc1[N+](=O)[O-] |  | 49 °C | log10 Henry constant (atm·m³/mol): -3.99; log10 Koc (L/kg): 4.2; log10 vapour pressure (mmHg): -4.34; ready biodegradability: not readily biodegradable; log10 BCF: 3.36; log10 biotransformation half-life (days): 0.62
Cc1ccc(C(=O)NS(=O)(=O)c2ccc(N)cc2)cc1C |  | 222 °C | 
Cc1cc(C(C)C)ccc1O | 230 °C | 8.6 °C | 
NC(=O)NCCCC(N)C(=O)O (stereo in doubt) |  | 236 °C | 
CC(CN1c2ccccc2Sc2ccccc21)N(C)C.Cl (stereo unspecified) |  | 228 °C | 
CCCCCCCOC(=O)CCCCCC | 277 °C | -33 °C | 
FC1=C(F)C(F)(F)C(F)(F)C(F)(F)C1(F)F | 52 °C |  | 
CSc1ccc2c(c1)N(CCC1CCCCN1C)c1ccccc1S2 (stereo unspecified) |  | 73 °C | 
Cc1ccccc1S | 195 °C | 15 °C | log10 vapour pressure (mmHg): -0.193
COc1c2ccoc2cc2oc(CO[C@@H]3O[C@H](CO)[C@@H](O)[C@H](O)[C@H]3O)cc(=O)c12 |  | 179 °C | 
CN(C)c1ccc(C(=O)O)cc1 |  | 242 °C | 
CCCCCC(O)(CC)CC | 199 °C |  | 
CC(C)c1ccc(C(C)C)c(C(C)C)c1 | 244 °C |  | 
CCCCCCCCc1ccc(O)cc1 |  |  | ready biodegradability: not readily biodegradable
CS(=O)(=O)CCCN=C=S |  | 47.5 °C | 

Structure (SMILES) | boiling point | melting point | further results
CC(=O)Oc1ccc(OC(C)=O)c(-c2ccccc2)c1 |  | 68 °C | 
O=C(O)c1ccc(C(=O)c2ccccc2)cc1 |  | 199 °C | 
CC1CNCC(C)C1 (stereo unspecified) | 144 °C |  | 
OB(c1ccccc1)c1ccccc1 |  | 57.5 °C | 
CC(C)N(Cc1ccccc1)C(=O)C(C)(C)C |  |  | log10 vapour pressure (mmHg): -3.18
Brc1ccc2c(c1)Oc1cc(Br)ccc1O2 |  | 145 °C | log10 vapour pressure (mmHg): -5.89
CC(C)N(C(=O)CCl)c1ccccc1 |  | 77 °C | log10 Koc (L/kg): 2.42; log10 vapour pressure (mmHg): -3.64
CO[C@H]1[C@H](O)[C@H](O[C@H]2CC[C@@]3(C)[C@H](CC[C@@H]4[C@@H]3CC[C@]3(C)[C@@H](C5=CC(=O)OC5)CC[C@]43O)C2)O[C@@H](C)[C@@H]1O |  | 221 °C | 
N#Cc1c[nH]c2ccccc12 |  | 180 °C | 
CC(C)OC(N)=O | 183 °C | 93 °C | 
Nc1ccc2c3c(cccc13)-c1ccccc1-2 |  | 116 °C | 
ClC(Cl)(Cl)C(Cl)(Cl)Cl |  | 187 °C | log10 Henry constant (atm·m³/mol): -2.41; log10 Koa: 4.47; log10 vapour pressure (mmHg): -0.678; ready biodegradability: not readily biodegradable; log10 BCF: 2.71; log10 biotransformation half-life (days): 0.76
CC(=O)CF | 77 °C |  | log10 vapour pressure (mmHg): 1.8
CCCCC(C)(C)CC | 137 °C |  | 
O=S(=O)(O)c1ccc(O)c2ccccc12 |  |  | log10 BCF: 1.11
NS(=O)(=O)c1cc2c(cc1Cl)NC(CC1CCCC1)NS2(=O)=O (stereo unspecified) |  | 238 °C | 
ClCc1cc(Cl)c(Cl)cc1Cl | 273 °C |  | 
C=C(C)CN(CC)c1c([N+](=O)[O-])cc(C(F)(F)F)cc1[N+](=O)[O-] |  | 55.5 °C | log10 Koc (L/kg): 3.6; log10 vapour pressure (mmHg): -4.06
C[C@]12N[C@H](Cc3ccccc31)c1ccccc12 |  | 68.8 °C | 
OC1CC=CCC1 (stereo unspecified) | 164 °C |  | 
Cc1coc2ccccc12 | 197 °C |  | 
CC/C=C/CCCCC | 148 °C |  | 
Nc1c(Cl)c(Cl)nc(C(=O)O)c1Cl |  | 218 °C | log10 Koc (L/kg): 1.3; log10 vapour pressure (mmHg): -10.1; ready biodegradability: not readily biodegradable
CC(C)(C)CC(C)(C)c1ccc(O)c(Cc2ccc(Cl)cc2Cl)c1 |  | 78 °C | 
CCCCCCCC=CC=O | 230 °C |  | 

Structure (SMILES) | boiling point | melting point | further results
CC(=O)c1c(O)c(C)c(O)c(Cc2c(O)c3c(c(C(=O)/C=C/c4ccccc4)c2O)OC(C)(C)C=C3)c1O |  | 212 °C | 
NNC(N)=O |  | 96 °C | 
FC(F)=C(Cl)Cl | 19 °C | -116 °C | 
C[C@H]1CC[C@@H]2C[C@H]1C2(C)C |  | -53 °C | 
CC(=O)OCOc1ccccc1C(N)=O |  | 92.5 °C | 
O=C(Cl)OCc1ccccc1 | 152 °C |  | log10 vapour pressure (mmHg): -2.51
O=C1CCC(N2C(=O)c3ccccc3C2=O)C(=O)N1 (stereo unspecified) |  | 270 °C | 
O=C(Br)c1ccccc1 | 218 °C | -24 °C | log10 vapour pressure (mmHg): -0.654
CCOC(=O)c1ccc(C)cc1 | 232 °C |  | log10 Koc (L/kg): 2.59
Brc1ccc2cccnc2c1 | 290 °C | 34 °C | 
C=CC(=O)OCCOC(=O)C=C |  |  | log10 vapour pressure (mmHg): -1.18
CN(C)Cc1cc(C(C)(C)C)c(O)c(C(C)(C)C)c1 |  | 93.5 °C | 
CC(=O)[C@@]1(O)CC[C@H]2[C@@H]3C[C@H](C)C4=CC(=O)C=C[C@]4(C)[C@@]3(F)[C@@H](O)C[C@@]21C |  | 297 °C | 
Fc1ccc(Oc2ccnc3cc(Cl)cc(Cl)c23)cc1 |  | 107 °C | log10 vapour pressure (mmHg): -6.82
CCc1ccncc1 | 168 °C | -90.5 °C | log10 Henry constant (atm·m³/mol): -5.07; log10 vapour pressure (mmHg): 0.355
CC(Oc1ccccc1Cl)C(=O)O (stereo unspecified) |  | 114 °C | 
Cc1cc(C)c(C)cn1 | 188 °C |  | 
COc1ccc(Cl)c(N)c1 |  | 27 °C | 
CCCCC(CC)C(=O)O (stereo unspecified) | 228 °C |  | log10 vapour pressure (mmHg): -1.52
CCOC(=O)C=C(C)C | 154 °C |  | 
Cc1cc(Cl)nc2ccccc12 | 296 °C | 59 °C | 
CCCCCCCCCCCCCCOC(=O)CCCCCCCCCCCCC |  |  | ready biodegradability: readily biodegradable
C#CC(C)(C)NC(=O)c1ccc(C(C)C)cc1 |  |  | log10 Koc (L/kg): 2.17
CCCCC=O | 103 °C | -91.5 °C | log10 Henry constant (atm·m³/mol): -3.83; log10 vapour pressure (mmHg): 1.42
CC(Br)Br | 108 °C | -63 °C | log10 vapour pressure (mmHg): 1.41

Structure (SMILES) | boiling point | melting point | further results
O=C(O)c1ccsc1 |  | 138 °C | 
CCCC=C(C)C | 95.4 °C | -130 °C | log10 vapour pressure (mmHg): 1.73
C=CC(N)=O | 193 °C | 84.5 °C | log10 Koc (L/kg): 1.7; log10 vapour pressure (mmHg): -2.15; ready biodegradability: readily biodegradable
COP(=O)(OC)O/C(C)=C/C(=O)N(C)C |  |  | log10 Henry constant (atm·m³/mol): -10.3; log10 Koc (L/kg): 1.66; log10 vapour pressure (mmHg): -3.8
COc1ccc(CC(C)(C)C)cc1 | 238 °C |  | 
CCCCCCCCCC(=O)OC(=O)CCCCCCCCC |  | 24.7 °C | 
CCCS(=O)(=O)CCC | 270 °C | 29.5 °C | log10 vapour pressure (mmHg): -2.39
CCCCCCCI | 204 °C | -48.2 °C | log10 Henry constant (atm·m³/mol): -1.41; log10 vapour pressure (mmHg): -0.351
CCCCCCCCCCCCCCI |  |  | log10 vapour pressure (mmHg): -3.85
CNC(=O)O/N=C(\C)C(C)S(C)(=O)=O (stereo unspecified) |  | 87 °C | log10 vapour pressure (mmHg): -5.7
Cc1ccccc1C(N)=O |  | 147 °C | 
O=C(O)CCC(=O)Nc1ccccc1 |  | 148 °C | 
C/C=C/C(=O)c1ccccc1 |  | 20.5 °C | 
CC[N+](=O)[O-] | 114 °C | -89.5 °C | log10 Henry constant (atm·m³/mol): -4.32; log10 Koa: 2.88; log10 vapour pressure (mmHg): 1.32
CC1OC(C)OC(C)OC(C)O1 (stereo unspecified) |  |  | log10 Koc (L/kg): 2.38; ready biodegradability: not readily biodegradable
Brc1cc(Br)c(Oc2c(Br)cc(Br)c(Br)c2Br)cc1Br |  |  | logP: 8.27; log10 biotransformation half-life (days): 1.65
CCOc1ccc(NC(=O)CN)cc1 |  | 100 °C | 
O=C(c1ccccc1)c1ccc2n1CCC2C(=O)O (stereo unspecified) |  | 160 °C | 
CCCC(=O)C(C)C | 135 °C |  | 
CCC(C)=CCl | 96.5 °C |  | 
c1cocn1 | 69.5 °C |  | log10 vapour pressure (mmHg): 2.12
OCC1CCCC1 | 163 °C |  | 
Cc1cc(C=O)ccc1O |  | 119 °C | 
CCOC(C)(C)C | 73.1 °C | -94 °C | log10 Henry constant (atm·m³/mol): -2.79; log10 vapour pressure (mmHg): 2.09
CCCCCC(C=O)=Cc1ccccc1 |  | 80 °C | ready biodegradability: readily biodegradable

Structure (SMILES) | boiling point | melting point | further results
CNC(N)=O |  | 103 °C | 
COCC(C)O (stereo unspecified) | 119 °C | -95 °C | log10 Henry constant (atm·m³/mol): -6.04; log10 vapour pressure (mmHg): 1.1; ready biodegradability: readily biodegradable
CC(=O)CCC(=O)OC(C)C | 209 °C |  | 
CCCCCCCCCCCS | 257 °C | -3 °C | 
N#CSCc1ccccc1 | 232 °C | 43 °C | 
CCCCCCNC(=O)c1ccc(O)c(O)c1 |  | 140 °C | 
NS(=O)(=O)c1ccc(CCCCCO)cc1 |  | 86 °C | 
CCCCCCCCCCCC(C)=O | 263 °C | 30.5 °C | log10 vapour pressure (mmHg): -1.98
O=P(O)(c1ccccc1)c1ccccc1 |  | 194 °C | 
Cc1ccc2c(c1)CCCC2 | 229 °C | -40 °C | 
Cc1ccc(S(=O)(=O)O)c(C)c1 |  | 57 °C | ready biodegradability: readily biodegradable
CCOC(=O)CCCCl | 184 °C |  | 
O=C1c2ccccc2-c2cccc3cccc1c23 |  | 170 °C | ready biodegradability: not readily biodegradable; log10 BCF: 2.09; log10 biotransformation half-life (days): -0.69
Nc1cccc(Cl)c1Cl | 252 °C | 24 °C | 
O=C(NC(=O)c1c(F)cccc1F)Nc1ccc(Cl)c(Oc2ncc(C(F)(F)F)cc2Cl)c1 |  |  | log10 vapour pressure (mmHg): -12
CC1(C)[C@@H]2CC(=O)[C@@](C)(O)[C@H]1C2 |  | 38.5 °C | 
COc1ccc2[nH]ccc2c1 |  | 57 °C | 
CC(C)CCC(C)(C)C | 124 °C | -106 °C | log10 biodegradation half-life (days): 1.26; log10 vapour pressure (mmHg): 1.22
COc1ccc(Cl)c(Cl)c1Cl |  | 69.5 °C | log10 BCF: 2.96; log10 biotransformation half-life (days): 1.4
CCCCCCCCOC(=O)c1cc(O)c(O)c(O)c1 |  | 102 °C | 
Oc1cccc(Nc2ccccc2)c1 | 340 °C | 81.5 °C | 
CC(=O)Nc1ccc(S(=O)(=O)Nc2ccc([N+](=O)[O-])cc2)cc1 |  | 240 °C | 
Clc1cc2c(c(Cl)c1Cl)Oc1c(Cl)c(Cl)c(Cl)c(Cl)c1O2 |  | 264 °C | log10 Koa: 11.4; log10 vapour pressure (mmHg): -10.2; log10 BCF: 3.67; log10 biotransformation half-life (days): 1.21
